Earlier results in paper PMC10225205 (Cancer Medicine, 2023).
Where two headings read alike, the source gives them in different places.

Conditions: cited from earlier work

COc1cc(OC)cc(N(CCNC(C)C)c2ccc3ncc(-c4cnn(C)c4)nc3c2)c1 [erdafitinib]
Most common TEAE (in vivo): hyperphosphatemia | Most common TEAEs (phase 1 multicenter study, advanced solid tumors): hyperphosphatemia, dry mouth, stomatitis, and asthenia

C=CC(=O)N1CC[C@H](n2nc(C#Cc3cc(OC)cc(OC)c3)c3c(N)ncnc32)C1 [futibatinib]
Most common TEAE (phase 1, Japanese patients with advanced solid tumors): hyperphosphatemia | Most frequently reported TEAEs (phase 1 study, advanced solid tumors): hyperphosphatemia, diarrhea, constipation, and nausea

CCN1CCN(c2ccc(Nc3cc(N(C)C(=O)Nc4c(Cl)c(OC)cc(OC)c4Cl)ncn3)cc2)CC1 [infigratinib]
Most commonly reported (>30%) TEAEs (global phase 1 study): hyperphosphatemia, constipation, appetite decreased, stomatitis, diarrhea, nausea, and fatigue
